Measurements: patent US9133525B2, “Detection of DNA sequences as risk factors for HIV infection” (priority 2012, dated 2015)

Tested on: antibiotic sensitive microorganism associated with red blood cells
Assay: PCR amplification of DNA from red blood cells of HIV-positive patients with MSP2 Primer Pairs 1 and 2, before and after long-term antibiotic treatment
Format: in vivo, human (HIV-positive patients)
Method: Standard procedures for separating RBCs from buffy coat and other peripheral blood components are known. Peripheral blood was processed on a Ficoll gradient to separate the buffy coat from red blood cells. […] This lysate was prepared by repeated freeze-thawing of red blood cells isolated from the buffy coat, strong shaking by vortex, and a low speed centrifugation (1,500 g×10 mins). A pellet and supernatant fraction were obtained and tested. The primers described above only amplified DNA in the supernatant fraction, but not in the pellet.
Five HIV-positive patients were maintained on their antiretroviral therapy, but received for at least three months a daily antibiotic treatment (azithromycin 250 mg/day or doxycycline 100 mg/day). Blood samples were fractionated to recover a red blood cell fraction on day 0 and after 3 months of antibiotic.
Blood samples were obtained from African and European Patients who were HIV-negative or HIV-positive. Red blood cells were isolated from buffy coat and other blood components by separation on a Ficoll gradient as described above. […] Similar results were obtained using the primers described in Appendix 3. […] However, amplified DNA was detected in this patient using the Primer Pairs 1 and 2 shown in Appendix 2, but the amplified DNA bands were weaker than those for chronically-infected HIV-positive patients. […]

## CC[C@H]1OC(=O)[C@H](C)[C@@H](O[C@H]2C[C@@](C)(OC)[C@@H](O)[C@H](C)O2)[C@H](C)[C@@H](O[C@@H]2O[C@H](C)C[C@H](N(C)C)[C@H]2O)[C@](C)(O)C[C@@H](C)CN(C)[C@H](C)[C@@H](O)[C@]1(C)O [azithromycin]
HIV-positive patients, long term antibiotic treatment for more than three months, Primer Pairs 1 and 2
  intensity of the bands amplified using these primers: decrease
Five HIV-positive patients on antiretroviral therapy, daily azithromycin 250 mg/day or doxycycline 100 mg/day for at least three months, red blood cell fraction
  amount of DNA amplified after 3 months of antibiotic treatment vs day 0: significantly less
